≈ marks a conversion by molar mass, not a printed value. Read-outs that look alike come from different tables or passages of the source.
Columns and labels:
[1] = tested on: C. albicans DSM 1386; test: In vitro model of nebulizer disinfection with aqueous solution; format: cell-based, Candida albicans; details: for log reduction for C. albicans: 190 mg/ml; for log reduction in viable cells of C. albicans: 0.5 g/l, 20 minutes; for dose needed to ensure nebulizer disinfection: C. albicans DSM 1386
Excerpt: (§1) In the different tests below the strains used were Pseudomonas aeruginosa DSM 939 (ATCC 15442), Staphylococcus aureus DSM 799 (ATCC 6538), Candida albicans DSM 1386 (ATCC 10231) and Aspergillus niger ATCC 16404.
(§2) Nebulizers of Pari LC type were infected with bacteria (S. aureus and P. aeruginosa) via a suspension calibrated at 10^8 cfu/ml, and with fungi (C. albicans and A. niger) via a suspension calibrated at 10^7 cfu/ml. These nebulizers were then disinfected by soaking in a squalamine solution for 20 min, Glutaraldehyde and korsolex (peracetic acid) being used as inhibition control.
(§3) The microbial contamination of the nebulizer was obtained in vitro by soaking the inner part of the nebulizer (Pari LC, SPRINT SP, Pari, Germany) in a bacterial suspension prepared in Mueller Hinton broth containing 1·10^8 to 5·10^8 cfu/ml of bacteria (NF EN 1040, 1997) for 20 minutes. Disinfection was obtained by soaking this same part in a sterile water solution containing squalamine or ASD 2 for […] at the determined concentration in relation to the bacteria under consideration. For the fungi, suspensions of 1·10^7 to 5·10^7 cfu/ml (NF EN 1275, 1997) were prepared in Sabouraud broth and after incubation the nebulizer was soaked in sterile water containing squalamine or ASD 2. The nebulizer was then rinsed with two successive solutions of sterile water. The bacterial or fungal count was performed on the second wash bath. The counting of bacterial or fungal colonies was conducted on Tryptone Soya Agar for 24 hours for bacterial growth and on malt extract agar-agar for fungi at 37° C. for 48 hours.
(§4) The bactericidal and fungicidal test was performed three times in independent experiments and each bacterium and mould was evaluated separately. The concentration of squalamine and ASD 2 was increased until the required bactericidal and fungicidal activity was obtained. The disinfection time was set at 20 minutes for the first case and subsequently extended to 6 hours for A. Niger.

[2] = tested on: A. niger ATCC 16404; test: as above; format: cell-based, Aspergillus niger; details: for log reduction in viable cells of A. niger: 2 g/l, within 6 hours; for concentration enabling a fungicidal effect (with spore eradication) on A. niger: 6 hours; for dose needed to ensure nebulizer disinfection: A. niger ATCC 16404; for decrease for A. Niger: first attempt, 80 to 190 mg/ml, 20 minutes
Excerpt: as §1, §2, §3, §4

[3] = tested on: P. aeruginosa DSM 939; test: Minimum Inhibitory Concentration (MIC); format: cell-based; details: Pseudomonas aeruginosa, DSM939
Excerpt: as §1
(§5) 4.2.1) The nebulizers used were infected with different bacterial suspensions (S. aureus and P. aeruginosa) calibrated at 10^8 cfu/ml or fungal suspensions (C. albicans and A. niger) calibrated at 10^7 cfu/ml. In a preliminary set of experiments, values of Minimum Inhibitory Concentration (MIC) and Time Kill of squalamine and ASD 2 were determined against chosen reference bacteria and fungi (MIC only). […] A time of 20 minutes was defined to carry out nebulizer disinfection using squalamine whilst korsolex PAA and the 2% solution of glutaraldehyde were used for a time of 15 minutes following the manufacturers' instructions to obtain disinfecting properties. At a first attempt, it was able to be shown that the use of a dose of 80 mg/ml squalamine or ASD-2 for 20 minutes leads to a 2- and 3-log reduction for bacteria whilst a 2-log reduction for C. albicans was only obtained when using a concentration of squalamine or ASD-2 of 190 mg/ml. […] Nonetheless, squalamine and ASD 2 used at a concentration stronger than 0.5 g/l are capable of obtaining a 5-log10 reduction in viable cells of bacteria such as S. aureus, P. aeruginosa and a 4-log10 reduction for fungi such as C. albicans with a cycle of 20 min (FIG. 2A). On the other hand, for A. niger, the concentration enabling a fungicidal effect to be obtained (i.e. not only fungistatic but additionally with spore eradication) was higher than for the bacteria and over a longer time (2 g/l for 6 hours) (FIG. 2B).

[4] = tested on: C. albicans DSM 1386; test: Minimum Inhibitory Concentration (MIC); format: cell-based; details: Candida albicans, DSM1386
Excerpt: as §1, §5

[5] = tested on: S. aureus DSM 799; test: Minimum Inhibitory Concentration (MIC); format: cell-based; details: Staphylococcus aureus, DSM799
Excerpt: as §1, §5

[6] = tested on: A. niger ATCC 16404; test: Minimum Inhibitory Concentration (MIC); format: cell-based; details: Aspergillus niger, ATCC16404
Excerpt: as §1, §5

[7] = tested on: Aspergillus niger ATCC 16404; test: Disinfecting antifungal activity on infected nebulizer as per standard FR-EN 1275; format: cell-based; details: for log reduction of viable spore cells of A. Niger: 2 g/l, 6 hours; for log reduction in viable cells of A. niger: aqueous solution 0.5 g/l, 1 h
Description: as §1
Nebulizer contamination with fungi was obtained in vitro by soaking the inner part of nebulizers (Pari LC, SPRINT SP, Pari, Germany) in 1·10^7 fungi suspension at 5·10^7 cfu/mL prepared in Sabouraud broth. After incubation the nebulizer was soaked in sterile water containing squalamine at the determined concentrations in relation to the fungal strains under consideration (i.e. […] The nebulizer was then rinsed with two successive solutions of sterile water. The fungal count was performed on the second wash bath. The count of fungal colonies was performed on malt extract agar-agar (48 h).

[8] = tested on: Candida albicans DSM 1386 (ATCC 10231); test: as above; format: cell-based; details: aqueous solution 0.5 g/l, 1 h
Description: as §1
Nebulizer contamination with fungi was obtained in vitro by soaking the inner part of nebulizers (Pari LC, SPRINT SP, Pari, Germany) in 1·10^7 fungi suspension at 5·10^7 cfu/mL prepared in Sabouraud broth. After incubation the nebulizer was soaked in sterile water containing squalamine at the determined concentrations in relation to the fungal strains under consideration (i.e. 0.5 g/L for C. albicans (1 hour soaking) and 2 g/l for A. niger (6 h soaking). The nebulizer was then rinsed with two successive solutions of sterile water. The fungal count was performed on the second wash bath. The count of fungal colonies was performed on malt extract agar-agar (48 h).

[9] = tested on: Pseudomonas aeruginosa DSM 939 (ATCC 15442); test: Disinfecting antibacterial action on infected nebulizer as per standard FR-EN 1040; format: cell-based; details: aqueous solution 0.5 g/l, within 1 hour
Description: as §1
(§6) The microbial contamination of nebulizers was obtained in vitro by soaking the inner part of nebulizers (Pari LC, SPRINT SP, Pari, Germany) in a bacterial suspension prepared in Mueller Hinton broth containing 1·10^8 to 5·10^8 cfu/mL of bacteria. Disinfection was performed by soaking this same part in a solution of sterile water containing squalamine for 1 h at a determined concentration of 0.5 g/L for the bacteria under consideration (S. aureus or P. aeruginosa). The nebulizer was then rinsed with two successive sterile water solutions. The bacterial count was performed on the second wash bath on Tryptone Soya Agar (24 h).

[10] = tested on: Staphylococcus aureus DSM 799 (ATCC 6538); test: as above; format: cell-based; details: aqueous solution 0.5 g/l, within 1 hour
Description: as §1, §6

[11] = tested on: P. aeruginosa DSM 939; test: In vitro model of nebulizer disinfection with aqueous solution; format: cell-based, Pseudomonas aeruginosa; details: for log reduction for bacteria (P. aeruginosa): 80 mg/ml; for log reduction for bacteria (P. aeruginosa) / log reduction in viable cells of P. aeruginosa: 20 minutes; for log reduction in viable cells of P. aeruginosa: 0.5 g/l; for dose needed to ensure nebulizer disinfection: P. aeruginosa DSM 939
Excerpt: as §1, §2, §3, §4

[12] = tested on: S. aureus DSM 799; test: as above; format: cell-based, Staphylococcus aureus; details: for log reduction for bacteria (S. aureus): 80 mg/ml; for log reduction for bacteria (S. aureus) / log reduction in viable cells of S. aureus: 20 minutes; for log reduction in viable cells of S. aureus: 0.5 g/l; for dose needed to ensure nebulizer disinfection: S. aureus DSM 799
Excerpt: as §1, §2, §3, §4

[13] = tested on: spores of A. Niger; details: acid glutaraldehyde 0.5%; within 100 minutes; cited from earlier work
[14] = tested on: S. aureus; details: topical lipophilic formulation, 0.5 to 5 mg/ml, 10^6 cfu/ml, cited from earlier work
[15] = tested on: A. niger; details: in vitro, within 24 hours; cited from earlier work
[16] = Cutaneous toxicity on the backs of shaven mice; format: in vivo; details: concentrations in aqueous solution of 2 000
Excerpt: Cutaneous toxicity was examined over a period of 15 days by applying a squalamine ointment onto the backs of shaven mice (batch of 10 mice).

[17] = Effect on plastic or metallic material (corrosion)

Row | SMILES | log reduction for C. albicans [1] [log] | log reduction in viable cells of C. albicans [1] [log] | dose needed to ensure nebulizer disinfection [1] [mg/L] | log reduction in viable cells of A. niger [2] [log] | concentration enabling a fungicidal effect (with spore eradication) on A. niger [2] [g/L] | dose needed to ensure nebulizer disinfection [2] [mg/L] | decrease for A. Niger [2] | MIC [3] [µg/mL] | MIC [4] [µg/mL] | MIC [5] [µg/mL] | MIC [6] [µg/mL] | log reduction of viable spore cells of A. Niger [7] [log] | log reduction in viable cells of A. niger [7] [log] | log reduction in viable cells of C. albicans [8] [log] | log reduction of viable cells of P. aeruginosa [9] [log] | log reduction of viable cells of S. aureus [10] [log] | log reduction for bacteria (P. aeruginosa) [11] [log] | log reduction in viable cells of P. aeruginosa [11] [log] | dose needed to ensure nebulizer disinfection [11] [mg/L] | log reduction for bacteria (S. aureus) [12] [log] | other results
1 | CC(C)CCC[C@@H](C)[C@H]1CCC2C3C(CC[C@@]21C)[C@@]1(C)CC[C@H](O)CC1C[C@@H]3NCCCCN (stereo partly drawn) [ASD 2] | 2 | 4 | 500 | 4 | 2 | 2000 | no significant decrease | 8 (≈ 16.8 µM) | 8 (≈ 16.8 µM) | 2 (≈ 4.21 µM) | 8 (≈ 16.8 µM) | 4 | 6 | 6 | 8 | 8 | 3 | 5 | 130 | 2 | log reduction in viable cells of S. aureus [12]: 5 log; dose needed to ensure nebulizer disinfection [12]: 210 mg/L
2 | O=CCCCC=O [acid glutaraldehyde, glutaraldehyde] | – | – | – | – | – | – | – | – | – | – | – | – | – | – | – | – | – | – | – | – | log reduction in the number of spores of A. Niger [13]: 1 log
3 | CC(C)[C@@H](CC[C@@H](C)[C@H]1CCC2C3C(CC[C@@]21C)[C@@]1(C)CC[C@H](NCCCNCCCCN)CC1C[C@H]3O)OS(=O)(=O)O (stereo partly drawn) [squalamine] | 2 | 4 | 500 | 4 | 2 | 2000 | no significant decrease | 4 (≈ 6.37 µM) | 16 (≈ 25.5 µM) | 2 (≈ 3.18 µM) | 16 (≈ 25.5 µM) | 4 | 6 | 6 | 8 | 8 | 3 | 5 | 130 | 2 | log reduction of spores ([7]; aqueous solution of 2 g/l): 4 log; log reduction of S. aureus ([14]; within 24 hours): 4 log; log reduction of S. aureus ([14]; within 48 hours): 5 log; log reduction of A. niger [15]: 4 log; cutaneous toxicity [16]: do not cause cutaneous toxicity; log reduction in viable cells of S. aureus [12]: 5 log; dose needed to ensure nebulizer disinfection [12]: 210 mg/L; degradation of the equipment treated and/or in contact with the product [17]: do not induce any degradation
